According to US20050209278A1, “Piperidinyl- and piperazinyl-sulfonylmethyl hydroxamic acids and their use as protease inhibitors” (priority 2002, published 2005):

Biological target: T1, MMP-1 (Homo sapiens, UniProt P03956)
T1 construct: made in house; host or cells: MMP-1-transfected HT-1080 cells (spent media)
T1 sequence (P03956 100-469): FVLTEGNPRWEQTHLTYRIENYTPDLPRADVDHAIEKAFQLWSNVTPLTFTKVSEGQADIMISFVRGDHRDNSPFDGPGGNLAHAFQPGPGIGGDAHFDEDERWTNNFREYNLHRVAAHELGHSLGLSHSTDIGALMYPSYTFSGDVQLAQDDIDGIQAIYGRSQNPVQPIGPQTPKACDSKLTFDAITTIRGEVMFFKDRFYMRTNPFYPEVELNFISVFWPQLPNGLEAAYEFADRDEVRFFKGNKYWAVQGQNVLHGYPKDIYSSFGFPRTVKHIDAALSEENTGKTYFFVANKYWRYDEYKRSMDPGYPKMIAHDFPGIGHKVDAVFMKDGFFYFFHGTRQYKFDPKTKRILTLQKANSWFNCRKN
Assay: In vitro MMP inhibition, Ki determination (fluorogenic substrate II)
Format: biochemical
Details: value not in parenthesis; read-out: MMP-1 Ki

Ki, > 10 µM:
CCCCOc1ccc(N2CCN(S(=O)(=O)C3(C(=O)NO)CCN(CCN(CC)CC)CC3)CC2)cc1 [Example 235]
CCCCCc1ccc(N2CCN(S(=O)(=O)C3(C(=O)NO)CCN(S(=O)(=O)N(C)C)CC3)CC2)cc1 [Example 236]
CCCCCc1ccc(N2CCN(S(=O)(=O)C3(C(=O)NO)CCN(S(C)(=O)=O)CC3)CC2)cc1 [Example 237]
CCCCOc1ccc(N2CCN(S(=O)(=O)C3(C(=O)NO)CCN(CCCC(F)(F)F)CC3)CC2)cc1 [Example 238]
CCCCCc1ccc(N2CCN(S(=O)(=O)C3(C(=O)NO)CCN(C(C)=O)CC3)CC2)cc1 [Example 239]
CCCCOc1ccc(N2CCN(S(=O)(=O)C3(C(=O)NO)CCN(C(=O)NC(C)(C)C)CC3)CC2)cc1 [Example 240]
CCCCOc1ccc(N2CCN(S(=O)(=O)C3(C(=O)NO)CCN(c4ccc(N(C)C)cc4)CC3)CC2)cc1 [Example 241]
CCCCOc1ccc(N2CCN(S(=O)(=O)C3(C(=O)NO)CCN(C(=O)N(CC)CC)CC3)CC2)cc1 [Example 242]
CCCCOc1ccc(N2CCN(S(=O)(=O)C3(C(=O)NO)CCN(C(=O)N4CCCCC4)CC3)CC2)cc1 [Example 243]
CCCCOc1ccc(N2CCN(S(=O)(=O)C3(C(=O)NO)CCN(C(=O)N(C(C)C)C(C)C)CC3)CC2)cc1 [Example 244]
CCCCOc1ccc(N2CCN(S(=O)(=O)C3(C(=O)NO)CCN(Cc4nccn4C)CC3)CC2)cc1 [Example 245]
CCCCOc1ccc(N2CCN(S(=O)(=O)C3(C(=O)NO)CCN(Cc4ccc(C)o4)CC3)CC2)cc1 [Example 246]
CCCCOc1ccc(N2CCN(S(=O)(=O)C3(C(=O)NO)CCN(Cc4ncc[nH]4)CC3)CC2)cc1 [Example 247]
CCCCOc1ccc(N2CCN(S(=O)(=O)C3(C(=O)NO)CCN(c4ccc(OC)cc4)CC3)CC2)cc1 [Example 249]
